Results taken from paper PMC10315697, “Evaluation of ^134Ce/^134La as a PET Imaging Theranostic Pair for ^225Ac α-Radiotherapeutics” (Journal of Nuclear Medicine, 2023).

Assays:
[1] = Ex vivo biodistribution of free and chelated ^134Ce/^225Ac in healthy mice; conditions: healthy wild-type C57BL/6 mice, tail vein injection, 1 h for ^134Ce
[2] = design: method as in PMID 34190542; conditions: for nonradioactive cerium ref 14; cited from earlier work

Q: What does the source list for `O=C([O-])CN1CCN(CC(=O)[O-])CCN(CC(=O)[O-])CCN(CC(=O)[O-])CC1.[225Ac+3]` [^225Ac-DOTA]?
A: blood uptake [1]: 0.23 ± 0.02 %ID/g; bone uptake [1]: 2.26 ± 0.56 %ID/g; kidney uptake [1]: 3.07 ± 0.99 %ID/g; liver uptake [1]: 0.28 ± 0.008 %ID/g

Q: For `[225Ac+3].[Cl-].[Cl-].[Cl-]` [^225AcCl3], which bone uptake [1] is on record?
A: 29.56 ± 2.40 %ID/g

Q: What about the liver uptake [1] of the same compound?
A: 38.33 ± 6.75 %ID/g

Q: Which bone uptake [1] does the source give for `[Cl][134Ce]([Cl])[Cl]` [^134CeCl3] here?
A: 15.54 ± 2.69 %ID/g

Q: What about the liver uptake [1] of the same compound?
A: 71.5 ± 4.3 %ID/g

Q: For `O=C(O)c1cccc(CN2CCOCCOCCN(Cc3cccc(C(=O)O)n3)CCOCCOCC2)n1` [MACROPA], which “stability (KLnL)” value [2] is on record?
A: 15.1
